Measurements from ChEMBL document CHEMBL5724806, “Unraveling interindividual differences and functional consequences of gut microbial metabolism of immunosuppressants” (2024).

What was measured:
Format in all cases: ADME
[1] = The drug is tested on Actinomyces naeslundi strain: DSM43013 for biotransformation under anaerobic condition. The drug concentrations were measured over 6 timepoints collected between 0 and 12 hours of incubation by liquid-chromatography-coupled mass spectrometry (LC–MS); design: dose 5 uM, timepoint 0, 1.5, 3, 6, 9, 12 hours; conditions: actinomyces naeslundii, 5 µM
[2] = The drug is tested on Alloscardovia omnicolens strain: DSM21503 for biotransformation under anaerobic condition. The drug concentrations were measured over 6 timepoints collected between 0 and 12 hours of incubation by liquid-chromatography-coupled mass spectrometry (LC–MS); design: dose 5 uM, timepoint 0, 1.5, 3, 6, 9, 12 hours; conditions: 5 µM
[3] = The drug is tested on Bacteroides ovatus strain: ATCC 8483 for biotransformation under anaerobic condition. The drug concentrations were measured over 6 timepoints collected between 0 and 12 hours of incubation by liquid-chromatography-coupled mass spectrometry (LC–MS); design: dose 5 uM, timepoint 0, 1.5, 3, 6, 9, 12 hours; conditions: 5 µM
[4] = The drug is tested on Bacteroides uniformis strain: DSM6597 for biotransformation under anaerobic condition. The drug concentrations were measured over 6 timepoints collected between 0 and 12 hours of incubation by liquid-chromatography-coupled mass spectrometry (LC–MS); design: dose 5 uM, timepoint 0, 1.5, 3, 6, 9, 12 hours; conditions: 5 µM
[5] = The drug is tested on Bacteroides vulgatus strain: DSM1447 for biotransformation under anaerobic condition. The drug concentrations were measured over 6 timepoints collected between 0 and 12 hours of incubation by liquid-chromatography-coupled mass spectrometry (LC–MS); design: dose 5 uM, timepoint 0, 1.5, 3, 6, 9, 12 hours; conditions: phocaeicola vulgatus, 5 µM
[6] = The drug is tested on Bacteroides xylanisolvens strain: HM 722 for biotransformation under anaerobic condition. The drug concentrations were measured over 6 timepoints collected between 0 and 12 hours of incubation by liquid-chromatography-coupled mass spectrometry (LC–MS); design: dose 5 uM, timepoint 0, 1.5, 3, 6, 9, 12 hours; conditions: 5 µM
[7] = The drug is tested on Eubacterium hallii strain: DSM3353 for biotransformation under anaerobic condition. The drug concentrations were measured over 6 timepoints collected between 0 and 12 hours of incubation by liquid-chromatography-coupled mass spectrometry (LC–MS); design: dose 5 uM, timepoint 0, 1.5, 3, 6, 9, 12 hours; conditions: anaerobutyricum hallii, 5 µM
[8] = The drug is tested on Faecalibacterium prausnitzii strain: DSM17677 for biotransformation under anaerobic condition. The drug concentrations were measured over 6 timepoints collected between 0 and 12 hours of incubation by liquid-chromatography-coupled mass spectrometry (LC–MS); design: dose 5 uM, timepoint 0, 1.5, 3, 6, 9, 12 hours; conditions: faecalibacterium duncaniae, 5 µM
[9] = The drug is tested on Lactobacillus ruminis strain: ATCC25644 for biotransformation under anaerobic condition. The drug concentrations were measured over 6 timepoints collected between 0 and 12 hours of incubation by liquid-chromatography-coupled mass spectrometry (LC–MS); design: dose 5 uM, timepoint 0, 1.5, 3, 6, 9, 12 hours; conditions: ligilactobacillus ruminis, 5 µM
[10] = The drug is tested on Roseburia intestinalis strain: DSM14610 for biotransformation under anaerobic condition. The drug concentrations were measured over 6 timepoints collected between 0 and 12 hours of incubation by liquid-chromatography-coupled mass spectrometry (LC–MS); design: dose 5 uM, timepoint 0, 1.5, 3, 6, 9, 12 hours; conditions: 5 µM
[11] = The drug is tested on Streptococcus mitis strain: DSM12643 for biotransformation under anaerobic condition. The drug concentrations were measured over 6 timepoints collected between 0 and 12 hours of incubation by liquid-chromatography-coupled mass spectrometry (LC–MS); design: dose 5 uM, timepoint 0, 1.5, 3, 6, 9, 12 hours; conditions: 5 µM
[12] = The drug is tested on Akkermansia muciniphila strain: DSM22959 for biotransformation under anaerobic condition. The drug concentrations were measured over 6 timepoints collected between 0 and 12 hours of incubation by liquid-chromatography-coupled mass spectrometry (LC–MS); design: dose 5 uM, timepoint 0, 1.5, 3, 6, 9, 12 hours; conditions: 5 µM
[13] = The drug is tested on Lactobacillus ruminis strain: ATCC25644 for biotransformation under microaerobic condition. The drug concentrations were measured over 6 timepoints collected between 0 and 12 hours of incubation by liquid-chromatography-coupled mass spectrometry (LC–MS); design: dose 5 uM, timepoint 0, 1.5, 3, 6, 9, 12 hours; conditions: ligilactobacillus ruminis, 5 µM
[14] = The drug is tested on the gut metagenome community of A-01 with ENA study accession number: PRJEB31790 for biotransformation under anaerobic condition. The drug concentrations were measured over 7 timepoints collected between 0 and 12 hours of incubation by liquid-chromatography-coupled mass spectrometry (LC–MS); design: dose 5 uM, timepoint 0, 0.75, 1.5, 3, 6, 9, 12 hours; conditions: 5 µM
[15] = The drug is tested on the gut metagenome community of A-03 with ENA study accession number: PRJEB31790 for biotransformation under anaerobic condition. The drug concentrations were measured over 7 timepoints collected between 0 and 12 hours of incubation by liquid-chromatography-coupled mass spectrometry (LC–MS); design: dose 5 uM, timepoint 0, 0.75, 1.5, 3, 6, 9, 12 hours; conditions: 5 µM
[16] = The drug is tested on the gut metagenome community of A-09 with ENA study accession number: PRJEB31790 for biotransformation under anaerobic condition. The drug concentrations were measured over 7 timepoints collected between 0 and 12 hours of incubation by liquid-chromatography-coupled mass spectrometry (LC–MS); design: dose 5 uM, timepoint 0, 0.75, 1.5, 3, 6, 9, 12 hours; conditions: 5 µM
[17] = The drug is tested on the gut metagenome community of A-10 with ENA study accession number: PRJEB31790 for biotransformation under anaerobic condition. The drug concentrations were measured over 7 timepoints collected between 0 and 12 hours of incubation by liquid-chromatography-coupled mass spectrometry (LC–MS); design: dose 5 uM, timepoint 0, 0.75, 1.5, 3, 6, 9, 12 hours; conditions: 5 µM
[18] = The drug is tested on the gut metagenome community of T-01 with ENA study accession number: PRJEB31790 for biotransformation under anaerobic condition. The drug concentrations were measured over 7 timepoints collected between 0 and 12 hours of incubation by liquid-chromatography-coupled mass spectrometry (LC–MS); design: dose 5 uM, timepoint 0, 0.75, 1.5, 3, 6, 9, 12 hours; conditions: 5 µM
[19] = The drug is tested on the gut metagenome community of A-03 with ENA study accession number: PRJEB31790 for biotransformation under microaerobic condition. The drug concentrations were measured over 7 timepoints collected between 0 and 12 hours of incubation by liquid-chromatography-coupled mass spectrometry (LC–MS); design: dose 5 uM, timepoint 0, 0.75, 1.5, 3, 6, 9, 12 hours; conditions: 5 µM
[20] = The drug is tested on the gut metagenome community of A-04 with ENA study accession number: PRJEB31790 for biotransformation under microaerobic condition. The drug concentrations were measured over 7 timepoints collected between 0 and 12 hours of incubation by liquid-chromatography-coupled mass spectrometry (LC–MS); design: dose 5 uM, timepoint 0, 0.75, 1.5, 3, 6, 9, 12 hours; conditions: 5 µM
[21] = The drug is tested on the gut metagenome community of A-08 with ENA study accession number: PRJEB31790 for biotransformation under microaerobic condition. The drug concentrations were measured over 7 timepoints collected between 0 and 12 hours of incubation by liquid-chromatography-coupled mass spectrometry (LC–MS); design: dose 5 uM, timepoint 0, 0.75, 1.5, 3, 6, 9, 12 hours; conditions: 5 µM
[22] = The drug is tested on the gut metagenome community of P-01 with ENA study accession number: PRJEB31790 for biotransformation under microaerobic condition. The drug concentrations were measured over 7 timepoints collected between 0 and 12 hours of incubation by liquid-chromatography-coupled mass spectrometry (LC–MS); design: dose 5 uM, timepoint 0, 0.75, 1.5, 3, 6, 9, 12 hours; conditions: 5 µM
[23] = The drug is tested on the gut metagenome community of T-04 with ENA study accession number: PRJEB31790 for biotransformation under microaerobic condition. The drug concentrations were measured over 7 timepoints collected between 0 and 12 hours of incubation by liquid-chromatography-coupled mass spectrometry (LC–MS); design: dose 5 uM, timepoint 0, 0.75, 1.5, 3, 6, 9, 12 hours; conditions: 5 µM
[24] = The drug is tested on the gut metagenome community of T-05 with ENA study accession number: PRJEB31790 for biotransformation under microaerobic condition. The drug concentrations were measured over 7 timepoints collected between 0 and 12 hours of incubation by liquid-chromatography-coupled mass spectrometry (LC–MS); design: dose 5 uM, timepoint 0, 0.75, 1.5, 3, 6, 9, 12 hours; conditions: 5 µM

SMILES | Bacterial Biotransformation [1] | Bacterial Biotransformation [2] | Bacterial Biotransformation [3] | Bacterial Biotransformation [4] | Bacterial Biotransformation [5] | Bacterial Biotransformation [6] | Bacterial Biotransformation [7] | Bacterial Biotransformation [8] | Bacterial Biotransformation [9] | Bacterial Biotransformation [10] | Bacterial Biotransformation [11] | Bacterial Biotransformation [12] | Bacterial Biotransformation [13] | Bacterial Biotransformation [14] | Bacterial Biotransformation [15] | Bacterial Biotransformation [16] | Bacterial Biotransformation [17] | Bacterial Biotransformation [18] | Bacterial Biotransformation [19] | Bacterial Biotransformation [20] | other results
CCOc1nc2cccc(C(=O)O)c2n1Cc1ccc(-c2ccccc2-c2nnn[nH]2)cc1 | Compound NOT metabolized | Compound NOT metabolized | Compound NOT metabolized | Compound NOT metabolized | Compound NOT metabolized | Compound NOT metabolized | Compound NOT metabolized | Compound NOT metabolized | Compound NOT metabolized | Compound NOT metabolized | Compound NOT metabolized | Compound NOT metabolized | Compound NOT metabolized | Compound NOT metabolized | Compound NOT metabolized | Compound NOT metabolized | Compound NOT metabolized | Compound NOT metabolized | Compound NOT metabolized | Compound NOT metabolized | Bacterial Biotransformation [21]: Compound NOT metabolized; Bacterial Biotransformation [22]: Compound NOT metabolized; Bacterial Biotransformation [23]: Compound NOT metabolized; Bacterial Biotransformation [24]: Compound NOT metabolized
CCOC(=O)[C@H](CCc1ccccc1)N[C@@H](C)C(=O)N1[C@H](C(=O)O)C[C@@H]2CCC[C@@H]21 | Compound NOT metabolized | Compound NOT metabolized | Compound NOT metabolized | Compound NOT metabolized | Compound NOT metabolized | Compound NOT metabolized | Compound NOT metabolized | Compound NOT metabolized | Compound NOT metabolized | Compound NOT metabolized | Compound NOT metabolized | Compound NOT metabolized | Compound NOT metabolized | Compound NOT metabolized | Compound NOT metabolized | Compound NOT metabolized | Compound NOT metabolized | Compound NOT metabolized | Compound NOT metabolized | Compound NOT metabolized | Bacterial Biotransformation [21]: Compound NOT metabolized; Bacterial Biotransformation [22]: Compound NOT metabolized; Bacterial Biotransformation [23]: Compound NOT metabolized; Bacterial Biotransformation [24]: Compound NOT metabolized
C[C@@H](NCCCc1cccc(C(F)(F)F)c1)c1cccc2ccccc12 | Compound NOT metabolized | Compound NOT metabolized | Compound NOT metabolized | Compound NOT metabolized | Compound NOT metabolized | Compound NOT metabolized | Compound NOT metabolized | Compound NOT metabolized | Compound NOT metabolized | Compound NOT metabolized | Compound NOT metabolized | Compound NOT metabolized | Compound NOT metabolized | Compound NOT metabolized | Compound NOT metabolized | Compound NOT metabolized | Compound NOT metabolized | Compound metabolized | Compound NOT metabolized | Compound NOT metabolized | Bacterial Biotransformation [21]: Compound NOT metabolized; Bacterial Biotransformation [22]: Compound NOT metabolized; Bacterial Biotransformation [23]: Compound NOT metabolized; Bacterial Biotransformation [24]: Compound NOT metabolized
